Data: patent US4283409A, “Imidazolone derivatives” (Pfizer Inc., priority 1979, dated 1981)

What was measured:
[1] = tested on: sorbitol accumulation in the sciatic nerve of streptozotocinized (i.e., diabetic) rats; assay: sorbitol accumulation in the sciatic nerve of streptozotocinized (diabetic) rats; format: in vivo
Protocol: (§1) The activity of the compounds of the present invention, as agents for the control of chronic diabetic complications, is determined by their ability to successfully pass one or more of the following standard biologically and/or pharmacological tests, viz., (1) measuring their ability to reduce or inhibit sorbitol accumulation in the sciatic nerve of acutely streptozotocinized (i.e., diabetic) rats; (2) measuring their ability to reverse already-elevated sorbitol levels in the sciatic nerve and lens of chronic streptozotocin-induced diabetic rats; (3) measuring their ability to prevent or inhibit galactitol formation in the lens of acutely galactosemic rats, and (4) measuring their ability to delay cataract formation and reduce the severity of lens opacities in chronic galactosemic rats.
The final product of Example 1, viz., 3',4'-dihydro-spiro-[imidazolidine-4,1'(2'H)naphthalene]-5-one, was tested for its ability to reduce or inhibit sorbitol accumulation in the sciatic nerve of streptozotocinized (i.e., diabetic rats) by the procedure essentially described in U.S. Pat. No. 3,821,383. In the present study, the amount of sorbitol accumulation in the sciatic nerves was measured 27 hours after the induction of diabetes. The compound was then administered orally at 25 mg./kg. at intervals of 4, 8 and 24 hours after the administration of streptozotocin. The results obtained in this manner are clearly presented in terms of the percent inhibition (%) afforded by the test compound as compared to the case where no compound was administered (i.e., the control or untreated animal where sorbitol levels normally rise from approximately […]. tissue to as high as 400 mM/g. tissue in the 27-hour test period).

[2] = tested on: galactitol levels in the lens of galactosemic subjects; assay: galactitol levels in the lens of galactosemic subjects; format: in vivo, rats; settings: summary statement, no dose given
Protocol: as §1

Structure (SMILES): O=C1NCNC12CCCc1ccccc12 (stereo not shown) [Example 1, 3',4'-dihydro-spiro-[imidazolidine-4,1'(2'H)naphthalene]-5-one]
- percent inhibition of sorbitol accumulation in the sciatic nerve ([1]; diabetic rats, oral 25 mg./kg. at 4, 8 and 24 hours after streptozotocin, sorbitol measured 27 hours after induction of diabetes, vs untreated control): 52%
- signs of toxic side effects ([1]; diabetic rats, oral route, dose level of 25 mg./kg.): without showing any substantial signs of toxic side effects
- lowering sorbitol levels in the lens and sciatic nerve of diabetic subjects ([1]; summary statement, no dose given): remarkably effective
- lowering galactitol levels in the lens of galactosemic subjects [2]: remarkably effective
